Measurements: PubChem BioAssay AID248 (DTP/NCI, 2004)
Inconclusive results and toxic doses are left out.

Tested on: L1210 leukemia ip in BDF1 mice, survival T/C
Assay: NCI In Vivo Anticancer Drug Screen. Data for tumor model L1210 Leukemia (intraperitoneal) in B6D2F1 (BDF1) mice
Settings: endpoint: mean survival time, higher = longer survival
Procedure, shortened: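 Mice bearing the transplanted tumor received compound or vehicle. Survival of the treated group was divided by that of the vehicle-treated control group to give the ratio.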

[1] = dose: 100.0 mg/kg/injection, schedule: Q04DX003 (ip), vehicle: saline with Tween-80
[2] = dose: 200.0 mg/kg/injection, schedule: Q04DX003 (ip), vehicle: saline with Tween-80
[3] = dose: 100.0 mg/kg/injection, schedule: Q04DX003 (ip), vehicle: Klucel (hydroxypropylcellulose) (HPC)
[4] = dose: 200.0 mg/kg/injection, schedule: Q04DX003 (ip), vehicle: Klucel (hydroxypropylcellulose) (HPC)
[5] = dose: 400.0 mg/kg/injection, schedule: Q04DX003 (ip), vehicle: Klucel (hydroxypropylcellulose) (HPC)
[6] = dose: 50.0 mg/kg/injection, schedule: Q01DX009 (ip), vehicle: saline with Tween-80
[7] = dose: 100.0 mg/kg/injection, schedule: Q01DX009 (ip), vehicle: saline with Tween-80
[8] = dose: 200.0 mg/kg/injection, schedule: Q01DX009 (ip), vehicle: saline with Tween-80
[9] = dose: 100.0 mg/kg/injection, schedule: Q01DX001 (ip), vehicle: saline with Tween-80
[10] = dose: 200.0 mg/kg/injection, schedule: Q01DX001 (ip), vehicle: saline with Tween-80
[11] = dose: 400.0 mg/kg/injection, schedule: Q01DX001 (ip), vehicle: saline with Tween-80
[12] = dose: 100.0 mg/kg/injection, schedule: Q01DX001 (ip), vehicle: saline
[13] = dose: 200.0 mg/kg/injection, schedule: Q01DX001 (ip), vehicle: saline
[14] = dose: 400.0 mg/kg/injection, schedule: Q01DX001 (ip), vehicle: saline
[15] = dose: 100.0 mg/kg/injection, schedule: Q04DX002 (ip), vehicle: Klucel (hydroxypropylcellulose) (HPC)
[16] = dose: 200.0 mg/kg/injection, schedule: Q04DX002 (ip), vehicle: Klucel (hydroxypropylcellulose) (HPC)
[17] = dose: 400.0 mg/kg/injection, schedule: Q04DX002 (ip), vehicle: Klucel (hydroxypropylcellulose) (HPC)
[18] = dose: 75.0 mg/kg/injection, schedule: Q04DX003 (ip), vehicle: saline
[19] = dose: 100.0 mg/kg/injection, schedule: Q01DX009 (ip), vehicle: saline
[20] = dose: 150.0 mg/kg/injection, schedule: Q04DX003 (ip), vehicle: saline
[21] = dose: 300.0 mg/kg/injection, schedule: Q04DX003 (ip), vehicle: saline

## CC1=CCCCC1Br (configuration not stated)
[1]
  T/C: 96 % of control
[2]
  T/C: 101 % of control
dose: 400.0 mg/kg/injection, schedule: Q04DX003 (ip), vehicle: saline with Tween-80
  T/C: 98 % of control

## CCCCCCNS(=O)(=O)c1ccc([N+](=O)[O-])cc1
[3]
  T/C: 100 % of control
[4]
  T/C: 100 % of control
[5]
  T/C: 93 % of control

## C=C(C)/C=C/C1CCCCC1
[6]
  T/C: 95 % of control
[7]
  T/C: 106 % of control
[8]
  T/C: 95 % of control

## O=C1/C(=C\c2ccccc2Cl)N2CCC1CC2
[9]
  T/C: 94 % of control
[10]
  T/C: 109 % of control
[11]
  T/C: 93 % of control

## CC(C)CP(=O)(CC(C)C)C1CCCCC1
[1]
  T/C: 97 % of control
[2]
  T/C: 99 % of control

## CC(=O)OC1=COc2c(Cl)ccc3cccc1c23
dose: 100.0 mg/kg/injection, schedule: Q01DX001 (ip), vehicle: Klucel (hydroxypropylcellulose) (HPC)
  T/C: 103 % of control
dose: 200.0 mg/kg/injection, schedule: Q01DX001 (ip), vehicle: Klucel (hydroxypropylcellulose) (HPC)
  T/C: 109 % of control
dose: 400.0 mg/kg/injection, schedule: Q01DX001 (ip), vehicle: Klucel (hydroxypropylcellulose) (HPC)
  T/C: 97 % of control

## O=C(CC(O)(C(F)(F)Cl)C(F)(F)Cl)c1ccco1
[6]
  T/C: 98 % of control
[7]
  T/C: 98 % of control
[1]
  T/C: 103 % of control
[8]
  T/C: 95 % of control
[2]
  T/C: 90 % of control

## CC(=O)C(C)(CCC#N)CCC#N
[6]
  T/C: 105 % of control
[7]
  T/C: 91 % of control
[1]
  T/C: 108 % of control
[2]
  T/C: 104 % of control

## C1CNCOC1
dose: 100.0 mg/kg/injection, schedule: Q04DX003 (ip), vehicle: saline
  T/C: 105 % of control
dose: 200.0 mg/kg/injection, schedule: Q04DX003 (ip), vehicle: saline
  T/C: 111 % of control

## CCOC(=O)CC1(C)CCC2C1C(=O)OC2(C)C (configuration not stated)
[12]
  T/C: 105 % of control
[13]
  T/C: 104 % of control
[14]
  T/C: 110 % of control

## CC1CCCCN1C(=O)c1ccccc1C(=O)O (configuration not stated)
[15]
  T/C: 104 % of control
[16]
  T/C: 111 % of control

## Nc1nc2c(=O)[nH]c(=O)[nH]c2n1C1OC(CO)C(O)C1O (configuration not stated)
[12]
  T/C: 102 % of control
[13]
  T/C: 111 % of control

## Cc1ccc(C)c(NC(=O)Nc2cc(C)on2)c1
[7]
  T/C: 86 % of control
[8]
  T/C: 97 % of control
dose: 400.0 mg/kg/injection, schedule: Q01DX009 (ip), vehicle: saline with Tween-80
  T/C: 94 % of control

## COc1cc(/C=C2\C=Nc3ccccc32)ccc1O
[15]
  T/C: 97 % of control
[16]
  T/C: 105 % of control
[17]
  T/C: 102 % of control

## O=S(=O)(/C=C(/Br)c1ccccc1)c1ccccc1
[12]
  T/C: 92 % of control
[13]
  T/C: 97 % of control
[14]
  T/C: 95 % of control

## O=C(O)C(O)C(O)C(=O)O.[Cu+2] (configuration not stated)
dose: 5.0 mg/kg/injection, schedule: Q01DX001 (ip), vehicle: saline
  T/C: 95 % of control
dose: 10.0 mg/kg/injection, schedule: Q01DX001 (ip), vehicle: saline
  T/C: 89 % of control
dose: 20.0 mg/kg/injection, schedule: Q01DX001 (ip), vehicle: saline
  T/C: 93 % of control
dose: 40.0 mg/kg/injection, schedule: Q01DX001 (ip), vehicle: saline
  T/C: 101 % of control

## C(=N/N=C(N/N=C/c1ccccc1)N/N=C/c1ccccc1)/c1ccccc1
dose: 15.0 mg/kg/injection, schedule: Q01DX Z (ip), vehicle: carboxymethylcellulose (CMC)
  T/C: 95 % of control
dose: 30.0 mg/kg/injection, schedule: Q01DX Z (ip), vehicle: carboxymethylcellulose (CMC)
  T/C: 95 % of control
dose: 60.0 mg/kg/injection, schedule: Q01DX Z (ip), vehicle: carboxymethylcellulose (CMC)
  T/C: 92 % of control
dose: 120.0 mg/kg/injection, schedule: Q01DX Z (ip), vehicle: carboxymethylcellulose (CMC)
  T/C: 92 % of control
dose: 188.0 mg/kg/injection, schedule: Q01DX Z (oral), vehicle: carboxymethylcellulose (CMC)
  T/C: 95 % of control
dose: 375.0 mg/kg/injection, schedule: Q01DX Z (oral), vehicle: carboxymethylcellulose (CMC)
  T/C: 105 % of control
dose: 750.0 mg/kg/injection, schedule: Q01DX Z (oral), vehicle: carboxymethylcellulose (CMC)
  T/C: 110 % of control
dose: 1500.0 mg/kg/injection, schedule: Q01DX Z (oral), vehicle: carboxymethylcellulose (CMC)
  T/C: 100 % of control

## CCCCCCC1CC(=O)CC(=O)C1
[12]
  T/C: 101 % of control
[13]
  T/C: 98 % of control
[14]
  T/C: 95 % of control

## O=C(O)C1C=CC(C(=O)O)c2ccccc21 (configuration not stated)
[3]
  T/C: 102 % of control
[4]
  T/C: 96 % of control
[5]
  T/C: 98 % of control

## CC(=O)Oc1ccc[nH]c1=O
dose: 75.0 mg/kg/injection, schedule: Q01DX001 (ip), vehicle: saline
  T/C: 103 % of control
[18]
  T/C: 103 % of control
dose: 100.0 mg/kg/injection, schedule: Q01DX001 (ip), vehicle: carboxymethylcellulose (CMC)
  T/C: 100 % of control
dose: 100.0 mg/kg/injection, schedule: Q01DX009 (ip), vehicle: carboxymethylcellulose (CMC)
  T/C: 98 % of control
[19]
  T/C: 101 % of control
dose: 100.0 mg/kg/injection, schedule: Q01DX015 (ip), vehicle: saline
  T/C: 102 % of control
dose: 150.0 mg/kg/injection, schedule: Q01DX001 (ip), vehicle: saline
  T/C: 102 % of control
[20]
  T/C: 100 % of control
dose: 200.0 mg/kg/injection, schedule: Q01DX001 (ip), vehicle: carboxymethylcellulose (CMC)
  T/C: 97 % of control
dose: 200.0 mg/kg/injection, schedule: Q01DX009 (ip), vehicle: carboxymethylcellulose (CMC)
  T/C: 109 % of control
dose: 200.0 mg/kg/injection, schedule: Q01DX009 (ip), vehicle: saline
  T/C: 114 % of control
dose: 200.0 mg/kg/injection, schedule: Q01DX015 (ip), vehicle: saline
  T/C: 124 % of control
dose: 300.0 mg/kg/injection, schedule: Q01DX001 (ip), vehicle: saline
  T/C: 110 % of control
[21]
  T/C: 113 % of control
dose: 400.0 mg/kg/injection, schedule: Q01DX001 (ip), vehicle: carboxymethylcellulose (CMC)
  T/C: 103 % of control
dose: 400.0 mg/kg/injection, schedule: Q01DX009 (ip), vehicle: saline
  T/C: 153 % of control
dose: 800.0 mg/kg/injection, schedule: Q01DX009 (ip), vehicle: carboxymethylcellulose (CMC)
  T/C: 154 % of control
dose: 800.0 mg/kg/injection, schedule: Q01DX009 (ip), vehicle: saline
  T/C: 88 % of control

## CS(=O)(=O)CC(=O)c1ccc(O)cc1O
[9]
  T/C: 106 % of control
[10]
  T/C: 103 % of control
[11]
  T/C: 95 % of control

## CCC(O)Cc1c[nH]c(=O)[nH]c1=O (configuration not stated)
dose: 50.0 mg/kg/injection, schedule: Q01DX009 (ip), vehicle: saline
  T/C: 93 % of control
[19]
  T/C: 98 % of control
[1]
  T/C: 94 % of control
[2]
  T/C: 94 % of control

## CC1=CC(=O)N(CCl)C1=O
[1]
  T/C: 102 % of control
[2]
  T/C: 94 % of control

## CCCCCCCCCCCCCCCCCOc1ccc(Sc2ccc([N+](=O)[O-])cc2)cc1
[4]
  T/C: 92 % of control

## CC(=O)Oc1c2ccccc2c(OC(C)=O)c2[nH]c(-c3ccccc3)cc12
[3]
  T/C: 90 % of control
[4]
  T/C: 93 % of control
[5]
  T/C: 90 % of control

## O=C(Nc1ccccc1C(=O)OCc1ccc([N+](=O)[O-])cc1)OCc1ccccc1
[18]
  T/C: 98 % of control
[20]
  T/C: 98 % of control
[21]
  T/C: 104 % of control

## O=C(/C=C/c1cccc([N+](=O)[O-])c1)c1ccccc1[N+](=O)[O-]
[15]
  T/C: 103 % of control
[16]
  T/C: 103 % of control
[17]
  T/C: 100 % of control

## CC(C)(C)[Si](C)(C)OC1CCP(C)(=S)CC1 (configuration not stated)
dose: 100.0 mg/kg/injection, schedule: Q04DX002 (ip), vehicle: saline with Tween-80
  T/C: 98 % of control
dose: 200.0 mg/kg/injection, schedule: Q04DX002 (ip), vehicle: saline with Tween-80
  T/C: 91 % of control
dose: 400.0 mg/kg/injection, schedule: Q04DX002 (ip), vehicle: saline with Tween-80
  T/C: 95 % of control
